One may read the EC50 as the concentration giving half of the maximal effect.

The values that follow come from article PMC6920801, “Conformation and Aggregation of Human Serum Albumin in the Presence of Green Tea Polyphenol (EGCg) and/or Palmitic Acid” (Biomolecules, 2019).

The test concerns the target T1, Human serum albumin (HSA) (Homo sapiens, UniProt P02768).
T1 construct: gene ALB; fatty acid-free albumin from human serum; CPM-labelled at Cys-34 for FRET
The test can be described thus: FRET (Trp-214 to CPM-Cys-34) titration with one-site fit; Trp fluorescence quenching, CD, DLS. It counts as binding. The source says:
FRET (Trp-214 to CPM-Cys-34) titration with one-site fit; Trp fluorescence quenching, CD, DLS on Human serum albumin (HSA) | The effect was dose dependent and fit a one binding site isotherm, with a calculated maximum change in distance

T1 sequence (P02768 25-609): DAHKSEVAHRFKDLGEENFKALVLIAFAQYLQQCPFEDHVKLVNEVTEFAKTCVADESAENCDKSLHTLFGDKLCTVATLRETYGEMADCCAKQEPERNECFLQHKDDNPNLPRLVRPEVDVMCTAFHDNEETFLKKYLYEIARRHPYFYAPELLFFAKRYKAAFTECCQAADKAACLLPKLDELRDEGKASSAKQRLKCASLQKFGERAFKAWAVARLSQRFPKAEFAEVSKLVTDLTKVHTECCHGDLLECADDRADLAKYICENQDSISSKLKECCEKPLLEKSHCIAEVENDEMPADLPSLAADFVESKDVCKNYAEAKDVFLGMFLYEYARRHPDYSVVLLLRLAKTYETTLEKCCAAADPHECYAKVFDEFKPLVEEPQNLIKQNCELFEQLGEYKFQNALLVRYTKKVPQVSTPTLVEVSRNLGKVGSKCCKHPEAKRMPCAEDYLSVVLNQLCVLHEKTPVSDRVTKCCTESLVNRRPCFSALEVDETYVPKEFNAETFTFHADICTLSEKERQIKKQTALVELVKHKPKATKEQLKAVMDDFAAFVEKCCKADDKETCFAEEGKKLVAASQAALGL

`O=C(O[C@@H]1Cc2c(O)cc(O)cc2O[C@@H]1c1cc(O)c(O)c(O)c1)c1cc(O)c(O)c(O)c1` [EGCg, (-)-epigallocatechin gallate] registered a concentration giving a half-maximal response (EC50) of 3.7 µM. In other words, the single-digit micromolar range.
